Like-named read-outs stand apart in the source and are kept apart here.
How the values were obtained:
[1] = system: HeLa (human cervical carcinoma) cells; assay: MTT antiproliferative assay, HeLa; format: cell-based; conditions: for IC50: mean of three independent determinations, read-out: Cytotoxicity IC50 HeLa
Protocol: (§1) Melting points were determined on an X4 apparatus (Beijing Tech Instrument Co. Ltd., Beijing, China) and were uncorrected. The ^1H and ^13C NMR spectra were recorded in CDCl3 on a Bruker AV-600 spectrometer at working frequencies 600 and 150 MHz and a Bruker AV-300 spectrometer at working frequencies 300 and 75 MHz, respectively. Chemical shifts are expressed in parts per million (δ) values and coupling constants (J) in Hertz. Infrared spectra were measured with a Thermo Scientific Nicolet IS-10 Spectrophotometer (Thermo Scientific, America). HREIMS was measured on an Agilent 6210 TOFMS instrument (Agilent Technologies, America). The cell proliferation assay was undertaken by a MTT method using 96-well plates on a […] MK3 analysis spectrometer (Thermo Scientific, Shanghai, China).
(§2) The detailed procedure has been reported in our previous work.
(§3) The antiproliferative activities of all steroidal thiosemicarbazones and their Pt(II) metal complexes were determined in vitro on Bel 7404, HeLa, and HEK293T. […] The results are summarized as IC50 values in μM in Table 1.

[2] = system: Bel-7404 (human liver carcinoma) cells; assay: MTT antiproliferative assay, Bel-7404; format: cell-based; conditions: for IC50: mean of three independent determinations, read-out: Cytotoxicity IC50 Bel-7404
Protocol: as §1, §2, §3

[3] = MTT antiproliferative assay, HEK293T; format: cell-based; conditions: human, HEK293T normal kidney epithelial cells, mean of three independent determinations, read-out: Cytotoxicity IC50 HEK293T
Protocol: as §1, §2
(§4) The antiproliferative activities of all steroidal thiosemicarbazones and their Pt(II) metal complexes were determined in vitro on Bel 7404, HeLa, and HEK293T.

[4] = system: HEK293T (normal kidney epithelial cells); assay: MTT antiproliferative assay, HEK293T; format: cell-based; conditions: mean of three independent determinations, read-out: Cytotoxicity IC50 HEK293T
Protocol: as §1, §2, §4

[5] = Homo sapiens, BEL-7404, MTT assay

SMILES | IC50 ([1]; Homo sapiens, HeLa, MTT assay) | melting point | IC50 [2, 5] | IC50 [3] | IC50 ([1]; MTT assay) | Cytotoxicity against HeLa cells (in words) ([1]; MTT assay, verbal summary) | SI HeLa (Selectivity Index) ([1]; ratio IC50 HEK293T versus IC50 HeLa) | IC50 ([2]; MTT assay) | Cytotoxicity against Bel 7404 cells (in words) ([2]; MTT assay, verbal summary) | SI Bel 7404 (Selectivity Index) ([2]; ratio IC50 HEK293T versus IC50 Bel 7404) | IC50 [4]
COC(=O)CCC(C)C1CCC2C3C(=O)CC4CC(=NNC(N)=S)CCC4(C)C3CCC12C (stereo not shown) [Compound 8, Methyl 3-Thiosemicarbazonyl-7-oxochenodeoxycholicate] | 96 µM | 285 to 286 °C | > 200 µM | > 200 µM | – | – | – | – | – | – | –
COC(=O)CCC(C)C1CCC2C3CCC4CC(=NNC(N)=S)CCC4(C)C3CC(=O)C12C (stereo not shown) [Compound 13, Methyl 3-Thiosemicarbazonyl-12-oxo-7-deoxycholicate] | > 200 µM | 125 to 127 °C | > 200 µM | > 200 µM | – | – | – | – | – | – | –
CC12CCC3c4ccc(O)cc4CCC3C1CCC2=NNC(N)=S (stereo not drawn) [Compound 2, 3β-Hydroxyestron-17-thiosemicarbazone] | 34 µM | 254 to 256 °C | 19 µM | – | – | – | – | – | – | – | –
COC(=O)CCC(C)C1CCC2C3C(O)CC4CC(=NNC(N)=S)CCC4(C)C3CCC12C (stereo not shown) [Compound 10, Methyl 3-Thiosemicarbazonyl-7-hydroxychenodeoxycholicate] | 142 µM | – | > 200 µM | > 200 µM | – | – | – | – | – | – | –
CC12CCC3c4ccc(O)cc4CCC3C1CCC2=[N+]1NC(N)=[S+][Pt-2]1([Cl])[Cl] (stereo not shown) [Compound 3, [PtL ^2 Cl 2]] | – | – | – | – | 23 µM | obvious cytotoxicity | > 8.7 | 39 µM | obvious cytotoxicity | > 5.1 | > 200 µM
CC(=O)Oc1ccc2c(c1)CCC1C2CCC2(C)/C(=N/NC(N)=S)CCC12 (stereo not drawn) [Compound 5, 3β-Acetyloxyestron-17-thiosemicarbazone] | 42 µM | 248 to 249 °C | > 200 µM | > 200 µM | – | – | – | – | – | – | –
